Test results published in US20110071108A1, “Beta-Cyclodextrin Derivatives as Antibacterial Agents” (Pinnacle Pharmaceuticals, Inc., priority 2005, published 2011).
Like-named read-outs stand apart in the source and are kept apart here.

Columns and labels:
Pseudomonas aeruginosa = assay: Bacterial panel testing, MIC by broth microdilution; format: cell-based; details: 20-24 hours growth
Method in brief: (§1)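 Strains grown 2-4 h at 37 °C in Mueller-Hinton or Brain Heart infusion broth, standardized to McFarland density and diluted. Compound (10 μg/ml in DMSO) serially two-fold diluted across plate in inoculated media; rifampicin control. Growth 20-24 h, clear wells scored for MIC.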

Eschericia coli = assay: as above; format: cell-based; details: 20-24 hours growth
Method in brief: as §1

Staphylococcus aureus = assay: as above; format: cell-based; details: 20-24 hours growth
Method in brief: as §1

Salmonella choleraesuis = assay: as above; format: cell-based; details: 20-24 hours growth
Method in brief: as §1

Enterococcus faecium = assay: as above; format: cell-based; details: 20-24 hours growth
Method in brief: as §1

Lungs cancer cells A549 [1] = tested on: Lungs cancer cells A549
Lungs cancer cells A549 [2] = assay: Mammalian cytotoxicity
Bacillus atrophaeus = assay: Bacterial panel testing, MIC by broth microdilution; format: cell-based; details: 20-24 hours growth
Method in brief: as §1

Compound	MIC PA (Pseudomonas aeruginosa)	MIC EC (Eschericia coli)	MIC SA (Staphylococcus aureus)	MIC SC (Salmonella choleraesuis)	MIC EF (Enterococcus faecium)	Mammalian Cytotoxicity IC50 (Lungs cancer cells A549 [1])	Mammalian Cytotoxicity IC50 (Lungs cancer cells A549 [2])	MIC BA (Bacillus atrophaeus)
Cl.Cl.Cl.Cl.Cl.Cl.Cl.NCCSC[C@H]1O[C@@H]2O[C@H]3[C@H](O)[C@@H](O)[C@@H](O[C@H]4[C@H](O)[C@@H](O)[C@@H](O[C@H]5[C@H](O)[C@@H](O)[C@@H](O[C@H]6[C@H](O)[C@@H](O)[C@@H](O[C@H]7[C@H](O)[C@@H](O)[C@@H](O[C@H]8[C@H](O)[C@@H](O)[C@@H](O[C@H]1[C@H](O)[C@H]2O)O[C@@H]8CSCCN)O[C@@H]7CSCCN)O[C@@H]6CSCCN)O[C@@H]5CSCCN)O[C@@H]4CSCCN)O[C@@H]3CSCCN	>200 µg/mL	>200 µg/mL	>200 µg/mL	>200 µg/mL	>200 µg/mL	829 µg/mL		
Cl.Cl.Cl.Cl.Cl.Cl.Cl.NCCCSC[C@H]1O[C@@H]2O[C@H]3[C@H](O)[C@@H](O)[C@@H](O[C@H]4[C@H](O)[C@@H](O)[C@@H](O[C@H]5[C@H](O)[C@@H](O)[C@@H](O[C@H]6[C@H](O)[C@@H](O)[C@@H](O[C@H]7[C@H](O)[C@@H](O)[C@@H](O[C@H]8[C@H](O)[C@@H](O)[C@@H](O[C@H]1[C@H](O)[C@H]2O)O[C@@H]8CSCCCN)O[C@@H]7CSCCCN)O[C@@H]6CSCCCN)O[C@@H]5CSCCCN)O[C@@H]4CSCCCN)O[C@@H]3CSCCCN	>200 µg/mL		>200 µg/mL	>200 µg/mL	>200 µg/mL	191 µg/mL		
Cl.Cl.Cl.Cl.Cl.Cl.Cl.NCCCCSC[C@H]1O[C@@H]2O[C@H]3[C@H](O)[C@@H](O)[C@@H](O[C@H]4[C@H](O)[C@@H](O)[C@@H](O[C@H]5[C@H](O)[C@@H](O)[C@@H](O[C@H]6[C@H](O)[C@@H](O)[C@@H](O[C@H]7[C@H](O)[C@@H](O)[C@@H](O[C@H]8[C@H](O)[C@@H](O)[C@@H](O[C@H]1[C@H](O)[C@H]2O)O[C@@H]8CSCCCCN)O[C@@H]7CSCCCCN)O[C@@H]6CSCCCCN)O[C@@H]5CSCCCCN)O[C@@H]4CSCCCCN)O[C@@H]3CSCCCCN	>200 µg/mL	>200 µg/mL	>200 µg/mL	>200 µg/mL	>200 µg/mL	198 µg/mL		
N[C@@H](Cc1ccccc1)C(=O)NC[C@H]1O[C@@H]2O[C@H]3[C@H](O)[C@@H](O)[C@@H](O[C@H]4[C@H](O)[C@@H](O)[C@@H](O[C@H]5[C@H](O)[C@@H](O)[C@@H](O[C@H]6[C@H](O)[C@@H](O)[C@@H](O[C@H]7[C@H](O)[C@@H](O)[C@@H](O[C@H]8[C@H](O)[C@@H](O)[C@@H](O[C@H]1[C@H](O)[C@H]2O)O[C@@H]8CNC(=O)[C@@H](N)Cc1ccccc1)O[C@@H]7CNC(=O)[C@@H](N)Cc1ccccc1)O[C@@H]6CNC(=O)[C@@H](N)Cc1ccccc1)O[C@@H]5CNC(=O)[C@@H](N)Cc1ccccc1)O[C@@H]4CNC(=O)[C@@H](N)Cc1ccccc1)O[C@@H]3CNC(=O)[C@@H](N)Cc1ccccc1	>200 µg/mL	>200 µg/mL	>200 µg/mL	>200 µg/mL	>200 µg/mL		>2000 µg/mL	
N=C(N)NCCSC[C@H]1O[C@@H]2O[C@H]3[C@H](O)[C@@H](O)[C@@H](O[C@H]4[C@H](O)[C@@H](O)[C@@H](O[C@H]5[C@H](O)[C@@H](O)[C@@H](O[C@H]6[C@H](O)[C@@H](O)[C@@H](O[C@H]7[C@H](O)[C@@H](O)[C@@H](O[C@H]8[C@H](O)[C@@H](O)[C@@H](O[C@H]1[C@H](O)[C@H]2O)O[C@@H]8CSCCNC(=N)N)O[C@@H]7CSCCNC(=N)N)O[C@@H]6CSCCNC(=N)N)O[C@@H]5CSCCNC(=N)N)O[C@@H]4CSCCNC(=N)N)O[C@@H]3CSCCNC(=N)N	>200 µg/mL	>200 µg/mL	>200 µg/mL	>200 µg/mL	>200 µg/mL		510 µg/mL	
NCCCCC(=O)NC[C@H]1O[C@@H]2O[C@H]3[C@H](O)[C@@H](O)[C@@H](O[C@H]4[C@H](O)[C@@H](O)[C@@H](O[C@H]5[C@H](O)[C@@H](O)[C@@H](O[C@H]6[C@H](O)[C@@H](O)[C@@H](O[C@H]7[C@H](O)[C@@H](O)[C@@H](O[C@H]8[C@H](O)[C@@H](O)[C@@H](O[C@H]1[C@H](O)[C@H]2O)O[C@@H]8CNC(=O)CCCCN)O[C@@H]7CNC(=O)CCCCN)O[C@@H]6CNC(=O)CCCCN)O[C@@H]5CNC(=O)CCCCN)O[C@@H]4CNC(=O)CCCCN)O[C@@H]3CNC(=O)CCCCN	>200 µg/mL	>200 µg/mL	>200 µg/mL	>200 µg/mL	>200 µg/mL		755 µg/mL	
CC(C)(C)OC(=O)N[C@@H](Cc1ccccc1)C(=O)NC[C@H]1O[C@@H]2O[C@H]3[C@H](O)[C@@H](O)[C@@H](O[C@H]4[C@H](O)[C@@H](O)[C@@H](O[C@H]5[C@H](O)[C@@H](O)[C@@H](O[C@H]6[C@H](O)[C@@H](O)[C@@H](O[C@H]7[C@H](O)[C@@H](O)[C@@H](O[C@H]8[C@H](O)[C@@H](O)[C@@H](O[C@H]1[C@H](O)[C@H]2O)O[C@@H]8CNC(=O)[C@H](Cc1ccccc1)NC(=O)OC(C)(C)C)O[C@@H]7CNC(=O)[C@H](Cc1ccccc1)NC(=O)OC(C)(C)C)O[C@@H]6CNC(=O)[C@H](Cc1ccccc1)NC(=O)OC(C)(C)C)O[C@@H]5CNC(=O)[C@H](Cc1ccccc1)NC(=O)OC(C)(C)C)O[C@@H]4CNC(=O)[C@H](Cc1ccccc1)NC(=O)OC(C)(C)C)O[C@@H]3CNC(=O)[C@H](Cc1ccccc1)NC(=O)OC(C)(C)C	>200 µg/mL	>200 µg/mL	>200 µg/mL	>200 µg/mL	>200 µg/mL		193 µg/mL	>200 µg/mL
CC(C)C[C@H](NC(=O)OC(C)(C)C)C(=O)NC[C@H]1O[C@@H]2O[C@H]3[C@H](O)[C@@H](O)[C@@H](O[C@H]4[C@H](O)[C@@H](O)[C@@H](O[C@H]5[C@H](O)[C@@H](O)[C@@H](O[C@H]6[C@H](O)[C@@H](O)[C@@H](O[C@H]7[C@H](O)[C@@H](O)[C@@H](O[C@H]8[C@H](O)[C@@H](O)[C@@H](O[C@H]1[C@H](O)[C@H]2O)O[C@@H]8CNC(=O)[C@H](CC(C)C)NC(=O)OC(C)(C)C)O[C@@H]7CNC(=O)[C@H](CC(C)C)NC(=O)OC(C)(C)C)O[C@@H]6CNC(=O)[C@H](CC(C)C)NC(=O)OC(C)(C)C)O[C@@H]5CNC(=O)[C@H](CC(C)C)NC(=O)OC(C)(C)C)O[C@@H]4CNC(=O)[C@H](CC(C)C)NC(=O)OC(C)(C)C)O[C@@H]3CNC(=O)[C@H](CC(C)C)NC(=O)OC(C)(C)C	>200 µg/mL	>200 µg/mL	>200 µg/mL	>200 µg/mL	>200 µg/mL		144 µg/mL	>200 µg/mL
Cl.Cl.Cl.Cl.Cl.Cl.Cl.NCCCCCCSC[C@H]1O[C@@H]2O[C@H]3[C@H](O)[C@@H](O)[C@@H](O[C@H]4[C@H](O)[C@@H](O)[C@@H](O[C@H]5[C@H](O)[C@@H](O)[C@@H](O[C@H]6[C@H](O)[C@@H](O)[C@@H](O[C@H]7[C@H](O)[C@@H](O)[C@@H](O[C@H]8[C@H](O)[C@@H](O)[C@@H](O[C@H]1[C@H](O)[C@H]2O)O[C@@H]8CSCCCCCCN)O[C@@H]7CSCCCCCCN)O[C@@H]6CSCCCCCCN)O[C@@H]5CSCCCCCCN)O[C@@H]4CSCCCCCCN)O[C@@H]3CSCCCCCCN	>200 µg/mL		>200 µg/mL		>200 µg/mL	321 µg/mL		
Cl.Cl.Cl.Cl.Cl.Cl.Cl.Cl.Cl.Cl.Cl.Cl.Cl.Cl.NCCCC(N)C(=O)NCC1OC2OC3C(CNC(=O)C(N)CCCN)OC(OC4C(CNC(=O)C(N)CCCN)OC(OC5C(CNC(=O)C(N)CCCN)OC(OC6C(CNC(=O)C(N)CCCN)OC(OC7C(CNC(=O)C(N)CCCN)OC(OC8C(CNC(=O)C(N)CCCN)OC(OC1C(O)C2O)C(O)C8O)C(O)C7O)C(O)C6O)C(O)C5O)C(O)C4O)C(O)C3O (stereo not shown)		>200 µg/mL	>200 µg/mL	>200 µg/mL	>200 µg/mL	860 µg/mL		
Cl.Cl.Cl.Cl.Cl.Cl.NCC1OC2OC3C(CN)OC(OC4C(CN)OC(OC5C(CN)OC(OC6C(CN)OC(OC7C(CN)OC(OC1C(O)C2O)C(O)C7O)C(O)C6O)C(O)C5O)C(O)C4O)C(O)C3O (stereo not shown)		>200 µg/mL	>200 µg/mL	>200 µg/mL	>200 µg/mL		109.3 µg/mL	>200 µg/mL
Cl.Cl.Cl.Cl.Cl.Cl.Cl.NCc1ccccc1CSCC1OC2OC3C(CSCc4ccccc4CN)OC(OC4C(CSCc5ccccc5CN)OC(OC5C(CSCc6ccccc6CN)OC(OC6C(CSCc7ccccc7CN)OC(OC7C(CSCc8ccccc8CN)OC(OC8C(CSCc9ccccc9CN)OC(OC1C(O)C2O)C(O)C8O)C(O)C7O)C(O)C6O)C(O)C5O)C(O)C4O)C(O)C3O (stereo not shown)	>100 µg/mL				>100 µg/mL	193.5 µg/mL		
